Laboratory results published in patent US12318455B2, “Anti-HER2 antibody-drug conjugate and application thereof” (HANGZHOU ADCORIS BIOPHARMA CO., LTD., priority 2016, dated 2025).

Experiments:
Type in all cases: cell-based
NCI-N87 = experiment: Tumor cell inhibition experiment (CCK-8), NCI-N87; settings: NCI-N87, HER2 3+, 3 days, read-out: IC50 values (nM) of anti-HER2 antibody-drug conjugates to HER2-expressing tumor cells
Method: (§1) This example examined the inhibitory activity of the antibody-drug conjugates of the present invention on HER2-positive cells. The tumor cell lines in this example were all purchased from ATCC, USA.
(§2) The experimental steps are as follows:
(§3) The cells were digested, collected by centrifugation, counted, and the cell liquid was diluted to 0.4-2.0×10^5 cells/ml, and 100 μl of said cell suspension was added to each well of a 96-well plate. The cells were cultured overnight in a 37° C. cell culture incubator, and ADC drugs with corresponding concentration was added the next day. The initial concentration of the drug was 1-15 μg/ml, and was diluted in 3-fold equal-gradient with a total of 9 concentration gradients. Finally, a set of zero-concentration cell were set as controls. After addition of drug, the cells were cultured for 3 days, and the drug-containing medium was sucked. 100 μl of 10% CCK-8 solution was added to each well, and incubated at 37° C. for 1-2 h, and then absorbance intensity of each well was detected at 490 nm with a microplate reader. The data was imported into a mapping software, the curve was fitted, and IC50 values were calculated.

HCC1954 = experiment: Tumor cell inhibition experiment (CCK-8), HCC1954; settings: HCC1954, HER2 3+, 3 days, read-out: IC50 values (nM) of anti-HER2 antibody-drug conjugates to HER2-expressing tumor cells
Method: as §1, §2, §3

BT474 = experiment: Tumor cell inhibition experiment (CCK-8), BT474; settings: BT474, HER2 3+, 3 days, read-out: IC50 values (nM) of anti-HER2 antibody-drug conjugates to HER2-expressing tumor cells
Method: as §1, §2, §3

MDA453 = experiment: Tumor cell inhibition experiment (CCK-8), MDA453; settings: MDA453, HER2 2+, 3 days, read-out: IC50 values (nM) of anti-HER2 antibody-drug conjugates to HER2-expressing tumor cells
Method: as §1, §2, §3

SKBR-3 = experiment: Tumor cell inhibition experiment (CCK-8), SKBR-3; settings: SKBR-3, HER2 3+, 3 days, read-out: IC50 values (nM) of anti-HER2 antibody-drug conjugates to HER2-expressing tumor cells
Method: as §1, §2, §3

OE-19 = experiment: Tumor cell inhibition experiment (CCK-8), OE-19; settings: OE-19, HER2 3+, 3 days, read-out: IC50 values (nM) of anti-HER2 antibody-drug conjugates to HER2-expressing tumor cells
Method: as §1, §2, §3

Substance: T-DM1
- IC50 (NCI-N87): 0.548 nM
- IC50 (HCC1954): 0.159 nM
- IC50 (BT474): 0.622 nM
- IC50 (MDA453): 0.259 nM
- IC50 (SKBR-3): 0.114 nM
- IC50 (OE-19): 0.099 nM
